The values that follow come from PubChem BioAssay (NCI).

Holding throughout (test): DTP human tumour cell line panel, 48 h
In experiment [1] the test system is RPMI-8226 leukemia.
Experiment [2] concerns HL-60(TB) leukemia.
In experiment [3] the test system is SK-MEL-5 melanoma.
The test system of experiment [4] is IGROV1 ovarian.
Experiment [5] relates to 786-0 renal.
Experiment [6] concerns UACC-257 melanoma.
Experiment [7] has as its system A498 renal.
Experiment [8] has as its system OVCAR-3 ovarian.
The subject of experiment [9] is SNB-19 CNS.
The subject of experiment [10] is SK-MEL-28 melanoma.
In experiment [11] the test system is MOLT-4 leukemia.
The test system of experiment [12] is HT29 colon.
Experiment [13] has as its system KM12 colon.
The subject of experiment [14] is RXF 393 renal.

The term TGI denotes the concentration at which net growth stops. Higher therefore signals less potent growth arrest.

The structures appear in SMILES notation.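 Tested at 5 concentrations; 48 h exposure; 96-well plates; endpoints linearly interpolated, else capped at highest concentration. TGI denotes the concentration required for complete inhibition of growth.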 Bounds are passed on as bounds.

Turning to `Cc1cc(Cl)ccc1NC(=O)/C(=N\NC(C)(C)C)C(C#N)c1nc(-c2ccc([N+](=O)[O-])cc2)cs1` (stereo not drawn), the TGI in [1], in [2], in [3], in experiment [4], in experiment [5] and in experiment [6] was > 100 µM each time. Also, the TGI in experiment [7], in [8], in experiment [9], in [10], in [11] and in experiment [12] was > 100 µM throughout. Further, the TGI in experiment [13] was > 100 µM.
As to `COC(=O)C(Cc1nc2ccc(Cl)cc2[nH]c1=O)C(=O)C(=O)Nc1cc(C)ccc1C` (stereo not drawn), the total growth inhibition concentration (TGI) in experiment [1], in experiment [2], in experiment [3], in experiment [4], in [5] and in experiment [6] was > 100 µM throughout. Besides, the TGI in experiment [7], in experiment [8], in experiment [9], in [10], in [14] and in experiment [11] was > 100 µM each time. The concentration for total growth inhibition (TGI) in experiment [12] and in experiment [13] was > 100 µM throughout.
For `COc1cc([C@@H]2c3cc4c(cc3[C@@H](NCc3ccccc3F)C3COC(=O)[C@@H]32)OCO4)cc(OC)c1O` (stereo partly drawn), the TGI in experiment [1] was 13.1 µM; in experiment [2], 4.26 µM; in experiment [3], 7.86 µM; in [4] it was 20.5 µM; in experiment [5], 13.8 µM; in experiment [6], 37.2 µM. In addition, the TGI was 19.7 µM in experiment [7]; 40.9 µM in [8]; 60.5 µM in experiment [9]; 46.6 µM in experiment [10]; 54.7 µM in [14]; 7.4 µM in [11]. For the same compound, the total growth inhibition concentration (TGI) in [12] was found to be 25.5 µM; in experiment [13] it was 18 µM.
Turning to `CCOC(=O)C1CCCc2sc(N)c(C#N)c21` (stereo not drawn), the concentration for total growth inhibition (TGI) in experiment [1], in [2], in experiment [3], in [4], in [5] and in experiment [6] was > 100 µM each time. The TGI in experiment [7], in experiment [9], in [10], in experiment [14], in experiment [11] and in [12] was > 100 µM throughout. In experiment [13], the TGI is > 100 µM.
Take `CC1(O)CC2C(CC1SC1CC3C(CC1(C)O)C3(C)C)C2(C)C` (stereo not drawn): the TGI in experiment [1] is > 100 µM; in [2], 58.5 µM; in experiment [3] it was 59.7 µM; in [4], > 100 µM; in experiment [5] it was > 100 µM; in [6], > 100 µM. Besides, the total growth inhibition concentration (TGI) in [8], in experiment [10], in experiment [11], in experiment [12] and in experiment [13] was > 100 µM throughout.
For the compound `Cc1ccc(C(=O)NC2CCCCC2)cc1N=NN(C)C`, the total growth inhibition concentration (TGI) in experiment [3], in [4], in [5], in experiment [6], in [8] and in experiment [9] was > 100 µM each time. In addition, the total growth inhibition concentration (TGI) in experiment [10], in experiment [12] and in [13] was > 100 µM in each case.
Turning to `CCOC(=O)C(C)NC(=O)NC12CC3CC(CC(F)(C3)C1)C2` (stereo not drawn), the TGI in [1], in [2], in experiment [3], in [4], in experiment [5] and in [6] was > 100 µM each time. Further, the concentration for total growth inhibition (TGI) in experiment [7] is > 100 µM; in experiment [8], > 100 µM; in experiment [9], > 100 µM; in experiment [10], > 100 µM; in experiment [14], 86.6 µM; in experiment [11], > 100 µM. Besides, the TGI in [12] and in [13] was > 100 µM throughout.
Regarding `O=C1/C(=C/c2ccccc2Cl)COc2ccc(Br)cc21`, the total growth inhibition concentration (TGI) in [2], in experiment [4], in experiment [5], in experiment [6], in experiment [7] and in [8] was > 100 µM throughout. Further, the TGI in experiment [10], in experiment [14], in [11], in [12] and in experiment [13] was > 100 µM each time.
`COc1cccc(C2=NC(C(C)C)CO2)c1OC` (stereo not drawn): the total growth inhibition concentration (TGI) in [1], in [2], in [3], in [4], in experiment [5] and in experiment [6] was > 100 µM in each case. The total growth inhibition concentration (TGI) in [7], in [8], in [9], in experiment [10], in experiment [14] and in [11] was > 100 µM in each case. In addition, the TGI in [12] and in experiment [13] was > 100 µM throughout.
For the compound `CC(=O)OCC12CC(CC1OC(C)=O)c1ccccc12` (stereo not drawn), the TGI in experiment [1], in experiment [2], in experiment [3], in [4], in experiment [5] and in experiment [6] was > 100 µM each time. Further, the total growth inhibition concentration (TGI) in experiment [7], in experiment [8], in experiment [9], in experiment [10], in experiment [11] and in experiment [12] was > 100 µM throughout.
`Cc1ccc(NC(=O)C2C3C=CC(O3)C2C(=O)O)cc1` (stereo not drawn): the TGI in experiment [1] is 54.7 µM; in [2], > 100 µM; in experiment [3] it was > 100 µM; in [4], > 100 µM; in experiment [5], > 100 µM; in [6], > 100 µM. The TGI in experiment [7] is > 100 µM; in experiment [8], > 100 µM; in experiment [9] it was > 100 µM; in [10] it was > 100 µM; in experiment [14], 80.1 µM; in experiment [11], > 100 µM. Also, the total growth inhibition concentration (TGI) in experiment [12] was 39.8 µM.
